Laboratory results: PMC5218480 (PLoS ONE, 2017)

System: MV-4-11 cells
Assay: Gene expression microarray analysis (Affymetrix PrimeView) and GSEA
Format: cell-based, human
Design: RFU PODN (11730768_x_at) / Fold change /veh PODN (11730768_x_at) / RFU LINC00158 (11744669_a_at) / Fold change /veh LINC00158 (11744669_a_at) / RFU DUSP10 (11751237_a_at) / Fold change /veh DUSP10 (11751237_a_at) / RFU ID3 (11757404_x_at) / Fold change /veh ID3 (11757404_x_at) / RFU PLEKHG5 (11737974_s_at) / Fold change /veh PLEKHG5 (11737974_s_at) / RFU LRRC4B (11730491_at) / Fold change /veh LRRC4B (11730491_at) / RFU GIMAP4 (11747438_a_at) / Fold change /veh GIMAP4 (11747438_a_at) / RFU KRT8 (11758183_x_at) / Fold change /veh KRT8 (11758183_x_at) / RFU CNN1 (11734310_a_at) / Fold change /veh CNN1 (11734310_a_at) / RFU VPS37D (11726825_at) / Fold change /veh VPS37D (11726825_at) / RFU C10orf10 (11716522_x_at) / Fold change /veh C10orf10 (11716522_x_at) / RFU KIR2DL2 /// KIR2DL4 /// KIR2DL5A /// KIR2DL5B /// KIR2DS1 /// KIR2DS2 /// KIR2DS3 /// KIR2DS4 /// KIR3DL3 /// KIR3DL3 /// KIR3DS1 (11738374_at) / Fold change /veh KIR2DL2 /// KIR2DL4 /// KIR2DL5A /// KIR2DL5B /// KIR2DS1 /// KIR2DS2 /// KIR2DS3 /// KIR2DS4 /// KIR3DL3 /// KIR3DL3 /// KIR3DS1 (11738374_at) / RFU C1QL1 (11718748_at) / Fold change /veh C1QL1 (11718748_at) / RFU TMPRSS4 (11747572_a_at) / Fold change /veh TMPRSS4 (11747572_a_at) / RFU HAMP (11756126_x_at) / Fold change /veh HAMP (11756126_x_at) / RFU RNFT2 (11725882_a_at) / Fold change /veh RNFT2 (11725882_a_at) / RFU NR4A2 (11747474_a_at) / Fold change /veh NR4A2 (11747474_a_at) / RFU ABCC12 (11746883_a_at) / Fold change /veh ABCC12 (11746883_a_at) / RFU TMEM136 (11760407_x_at) / Fold change /veh TMEM136 (11760407_x_at) / RFU CLDN22 /// WWC2 (11732394_at) / Fold change /veh CLDN22 /// WWC2 (11732394_at) / RFU HLA-DPB1 (11760878_x_at) / Fold change /veh HLA-DPB1 (11760878_x_at) / RFU SPINT1 (11716480_a_at) / Fold change /veh SPINT1 (11716480_a_at) / RFU GAP43 (11754022_s_at) / Fold change /veh GAP43 (11754022_s_at) / RFU A4GNT (11735810_at) / Fold change /veh A4GNT (11735810_at) / RFU PRB3 (11715151_x_at) / Fold change /veh PRB3 (11715151_x_at) / RFU TUBB4B (11761932_at) / Fold change /veh TUBB4B (11761932_at) / RFU CAPN14 (11732068_a_at) / Fold change /veh CAPN14 (11732068_a_at) / RFU TMCC2 (11721928_a_at) / Fold change /veh TMCC2 (11721928_a_at) / RFU IRGQ (11745062_a_at) / Fold change /veh IRGQ (11745062_a_at) / RFU FAM174B (11720279_a_at) / Fold change /veh FAM174B (11720279_a_at) / RFU TMPRSS4 (11748680_a_at) / Fold change /veh TMPRSS4 (11748680_a_at) / RFU FAM212B (11763350_a_at) / Fold change /veh FAM212B (11763350_a_at) / RFU PLEKHG5 (11743358_a_at) / Fold change /veh PLEKHG5 (11743358_a_at) / RFU ZSCAN30 (11745921_a_at) / Fold change /veh ZSCAN30 (11745921_a_at) / RFU CMKLR1 (11741424_a_at) / Fold change /veh CMKLR1 (11741424_a_at) / RFU LOC101060620 /// MAPK8IP1 (11723275_at) / Fold change /veh LOC101060620 /// MAPK8IP1 (11723275_at) / RFU SPTSSB (11747773_x_at) / Fold change /veh SPTSSB (11747773_x_at) / RFU PRSS12 (11739890_at) / Fold change /veh PRSS12 (11739890_at) / RFU BIN1 (11741810_x_at) / Fold change /veh BIN1 (11741810_x_at) / RFU WNT11 (11732464_a_at) / Fold change /veh WNT11 (11732464_a_at) / RFU C10orf10 (11716521_a_at) / Fold change /veh C10orf10 (11716521_a_at) / RFU C5orf56 (11738089_at) / Fold change /veh C5orf56 (11738089_at) / RFU CYB561 (11721691_x_at) / Fold change /veh CYB561 (11721691_x_at) / RFU ANKRD19P (11752326_a_at) / Fold change /veh ANKRD19P (11752326_a_at) / RFU OR2T12 /// OR2T33 /// OR2T8 (11738714_s_at) / Fold change /veh OR2T12 /// OR2T33 /// OR2T8 (11738714_s_at) / RFU VCAN (11748164_a_at) / Fold change /veh VCAN (11748164_a_at) / RFU JSRP1 (11732532_at) / Fold change /veh JSRP1 (11732532_at) / RFU KRTAP10-11 (11738290_x_at) / Fold change /veh KRTAP10-11 (11738290_x_at) / RFU MYO3A (11730013_a_at) / Fold change /veh MYO3A (11730013_a_at) / RFU EBF3 (11725865_a_at) / Fold change /veh EBF3 (11725865_a_at) / RFU CAMK2N1 (11719241_x_at) / Fold change /veh CAMK2N1 (11719241_x_at) / RFU C5orf56 (11738088_a_at) / Fold change /veh C5orf56 (11738088_a_at) / RFU OLFML3 (11715873_a_at) / Fold change /veh OLFML3 (11715873_a_at) / RFU LOC100653217 /// NTM (11731650_a_at) / Fold change /veh LOC100653217 /// NTM (11731650_a_at) / RFU MAPK11 (11762145_a_at) / Fold change /veh MAPK11 (11762145_a_at) / RFU FIZ1 (11724087_x_at) / Fold change /veh FIZ1 (11724087_x_at) / RFU OASL (11726364_x_at) / Fold change /veh OASL (11726364_x_at) / RFU SOX15 (11748057_x_at) / Fold change /veh SOX15 (11748057_x_at) / RFU CD79A (11719716_a_at) / Fold change /veh CD79A (11719716_a_at) / RFU HIST1H1D (11736915_at) / Fold change /veh HIST1H1D (11736915_at) / RFU CASKIN2 (11723855_a_at) / Fold change /veh CASKIN2 (11723855_a_at) / RFU LOC730098 (11760151_x_at) / Fold change /veh LOC730098 (11760151_x_at) / RFU OR4N2 (11742367_at) / Fold change /veh OR4N2 (11742367_at) / RFU PRRT2 (11749266_a_at) / Fold change /veh PRRT2 (11749266_a_at) / RFU SNX32 (11753110_a_at) / Fold change /veh SNX32 (11753110_a_at) / RFU CDHR5 (11726645_a_at) / Fold change /veh CDHR5 (11726645_a_at) / RFU RCAN1 (11760418_a_at) / Fold change /veh RCAN1 (11760418_a_at) / RFU FAM167A (11723789_a_at) / Fold change /veh FAM167A (11723789_a_at) / RFU FAM26E (11764081_at) / Fold change /veh FAM26E (11764081_at) / RFU ISYNA1 (11749810_s_at) / Fold change /veh ISYNA1 (11749810_s_at) / RFU ACY1 (11761880_at) / Fold change /veh ACY1 (11761880_at) / RFU 11764098_at / Fold change /veh 11764098_at / RFU SAMD14 (11745864_x_at) / Fold change /veh SAMD14 (11745864_x_at) / RFU NPB (11741838_a_at) / Fold change /veh NPB (11741838_a_at) / RFU TMPRSS6 (11731388_a_at) / Fold change /veh TMPRSS6 (11731388_a_at) / RFU KRTAP10-2 (11738614_at) / Fold change /veh KRTAP10-2 (11738614_at) / RFU ARHGAP8 /// PRR5-ARHGAP8 (11727945_x_at) / Fold change /veh ARHGAP8 /// PRR5-ARHGAP8 (11727945_x_at) / RFU KRTAP5-7 /// NADSYN1 (11734609_at) / Fold change /veh KRTAP5-7 /// NADSYN1 (11734609_at) / RFU RASL12 (11751679_a_at) / Fold change /veh RASL12 (11751679_a_at) / RFU CDKN2B (11736163_a_at) / Fold change /veh CDKN2B (11736163_a_at) / RFU PRF1 (11729649_at) / Fold change /veh PRF1 (11729649_at) / RFU, ZNF638 /// ZNF638-IT1 / Fold change vs veh, ZNF638 /// ZNF638-IT1 / RFU, PANK3 / Fold change vs veh, PANK3 / RFU, SH3YL1 / Fold change vs veh, SH3YL1 / RFU, ZEB2 / Fold change vs veh, ZEB2 / RFU, NRIP1 / Fold change vs veh, NRIP1 / RFU, PTTG1IP / Fold change vs veh, PTTG1IP / RFU, CAPN2 / Fold change vs veh, CAPN2 / RFU, MED14 / Fold change vs veh, MED14 / RFU, SNORA58 / Fold change vs veh, SNORA58 / RFU, C1orf63 / Fold change vs veh, C1orf63 / RFU, LRRFIP1 / Fold change vs veh, LRRFIP1 / RFU, NDUFAF7 / Fold change vs veh, NDUFAF7 / RFU, SLC12A2 / Fold change vs veh, SLC12A2 / RFU, IBTK / Fold change vs veh, IBTK / RFU, ESF1 / Fold change vs veh, ESF1 / Fold change vs veh, TMEM50B / RFU, TAOK1 / Fold change vs veh, TAOK1 / RFU, ACBD3 / Fold change vs veh, ACBD3 / RFU, TMA16 / Fold change vs veh, TMA16 / RFU, RWDD3 / Fold change vs veh, RWDD3 / RFU, BCAT1 / Fold change vs veh, BCAT1 / RFU, EDEM3 / Fold change vs veh, EDEM3 / RFU, TMEM33 / Fold change vs veh, TMEM33 / RFU, WDR75 / Fold change vs veh, WDR75 / RFU, AHCTF1 / Fold change vs veh, AHCTF1 / RFU, TFRC / Fold change vs veh, TFRC / RFU, ZDHHC17 / Fold change vs veh, ZDHHC17 / RFU, NOM1 / Fold change vs veh, NOM1 / RFU, ARL8B / Fold change vs veh, ARL8B / RFU, ZBTB11 / Fold change vs veh, ZBTB11 / RFU, TAMM41 / Fold change vs veh, TAMM41 / RFU, KIAA1704 /// LOC100996395 / Fold change vs veh, KIAA1704 /// LOC100996395 / RFU, ING1 / Fold change vs veh, ING1 / RFU, TRMT61B / Fold change vs veh, TRMT61B / RFU, FUBP3 / Fold change vs veh, FUBP3 / RFU, TP53 / Fold change vs veh, TP53 / RFU, TNKS2 / Fold change vs veh, TNKS2 / RFU, ZFP14 / Fold change vs veh, ZFP14 / RFU, ACTR2 / Fold change vs veh, ACTR2 / RFU, PPP3R1 / Fold change vs veh, PPP3R1 / RFU, PIK3R1 / Fold change vs veh, PIK3R1 / RFU, HNRNPA1 / Fold change vs veh, HNRNPA1 / RFU, RNF170 / Fold change vs veh, RNF170 / RFU, ZNF28 / Fold change vs veh, ZNF28 / RFU, RNGTT / Fold change vs veh, RNGTT / RFU, OGT / Fold change vs veh, OGT / RFU, BRD1 / Fold change vs veh, BRD1 / RFU, MARS / Fold change vs veh, MARS / RFU, ZNF655 / Fold change vs veh, ZNF655 / RFU, FAHD1 / Fold change vs veh, FAHD1 / RFU, BDP1 / Fold change vs veh, BDP1 / RFU, LRRCC1 / Fold change vs veh, LRRCC1 / RFU, ARID1A / Fold change vs veh, ARID1A / RFU, ZNF146 / Fold change vs veh, ZNF146 / RFU, ZNF330 / Fold change vs veh, ZNF330 / RFU, GPN3 / Fold change vs veh, GPN3 / RFU, C9orf123 / Fold change vs veh, C9orf123 / RFU, N4BP2L2 / Fold change vs veh, N4BP2L2 / RFU, ARFIP1 / Fold change vs veh, ARFIP1 / RFU, FAM179B / Fold change vs veh, FAM179B / RFU, BCL10 / Fold change vs veh, BCL10 / RFU, UHRF1BP1L / Fold change vs veh, UHRF1BP1L / RFU, BET1 / Fold change vs veh, BET1 / RFU, CNOT2 / Fold change vs veh, CNOT2 / RFU, ZNF268 / Fold change vs veh, ZNF268 / Fold change vs veh, ZNF507 / RFU, DGCR2 / Fold change vs veh, DGCR2 / RFU, WDSUB1 / Fold change vs veh, WDSUB1 / Fold change vs veh, HSP90B1 /// MIR3652 / RFU, ADSS / Fold change vs veh, ADSS / RFU, GK / Fold change vs veh, GK / RFU, ZNF148 / Fold change vs veh, ZNF148 / RFU, TAF9 / Fold change vs veh, TAF9 / RFU, SLC1A5 / Fold change vs veh, SLC1A5 / RFU, SLMO2 / Fold change vs veh, SLMO2 / RFU, ABCC4 / Fold change vs veh, ABCC4 / RFU, LOC101060439 /// RAP1B / Fold change vs veh, LOC101060439 /// RAP1B / RFU, RFX7 / Fold change vs veh, RFX7 / RFU, GTPBP10 / Fold change vs veh, GTPBP10 / RFU, CNEP1R1 / Fold change vs veh, CNEP1R1 / RFU, BIVM-ERCC5 /// ERCC5 / Fold change vs veh, BIVM-ERCC5 /// ERCC5 / RFU, ILF3 / Fold change vs veh, ILF3 / RFU 11762660_at / Fold change /veh 11762660_at / RFU VCAN (11757783_s_at) / Fold change /veh VCAN (11757783_s_at) / RFU DDX43 (11728927_at) / Fold change /veh DDX43 (11728927_at) / RFU KRT8 (11758188_x_at) / Fold change /veh KRT8 (11758188_x_at) / RFU NKD1 (11759106_at) / Fold change /veh NKD1 (11759106_at) / RFU SRD5A1 (11742802_a_at) / Fold change /veh SRD5A1 (11742802_a_at) / RFU TPSAB1 /// TPSB2 (11721975_s_at) / Fold change /veh TPSAB1 /// TPSB2 (11721975_s_at) / RFU GSTM3 (11746129_a_at) / Fold change /veh GSTM3 (11746129_a_at) / RFU IL23R (11737362_x_at) / Fold change /veh IL23R (11737362_x_at) / RFU TMEM51 (11727254_a_at) / Fold change /veh TMEM51 (11727254_a_at) / RFU PIWIL2 (11732686_x_at) / Fold change /veh PIWIL2 (11732686_x_at) / RFU ORM1 (11744905_x_at) / Fold change /veh ORM1 (11744905_x_at) / RFU CCDC152 (11743942_at) / Fold change /veh CCDC152 (11743942_at) / RFU ECM1 (11717891_a_at) / Fold change /veh ECM1 (11717891_a_at) / RFU IL23R (11748794_a_at) / Fold change /veh IL23R (11748794_a_at) / RFU TNFAIP8L3 (11732012_x_at) / Fold change /veh TNFAIP8L3 (11732012_x_at) / RFU MBOAT4 (11741988_at) / Fold change /veh MBOAT4 (11741988_at) / RFU 11764193_at / Fold change /veh 11764193_at / RFU TMEM53 (11763286_at) / Fold change /veh TMEM53 (11763286_at) / RFU MAGEB2 (11727129_at) / Fold change /veh MAGEB2 (11727129_at) / RFU TMEM200A (11744735_a_at) / Fold change /veh TMEM200A (11744735_a_at) / RFU CCDC152 (11751479_a_at) / Fold change /veh CCDC152 (11751479_a_at) / RFU FAM211A (11726209_a_at) / Fold change /veh FAM211A (11726209_a_at) / RFU RGS16 (11746705_a_at) / Fold change /veh RGS16 (11746705_a_at) / RFU VCAN (11755009_s_at) / Fold change /veh VCAN (11755009_s_at) / RFU RHOB (11743442_s_at) / Fold change /veh RHOB (11743442_s_at) / RFU RGS16 (11720943_a_at) / Fold change /veh RGS16 (11720943_a_at) / RFU RGS16 (11720944_at) / Fold change /veh RGS16 (11720944_at) / RFU, VPS4B / Fold change vs veh, VPS4B / RFU, CREB1 / Fold change vs veh, CREB1 / RFU, DNAJC13 / Fold change vs veh, DNAJC13 / RFU, GNAQ / Fold change vs veh, GNAQ / RFU, CDK5R1 / Fold change vs veh, CDK5R1 / RFU, ZRANB3 / Fold change vs veh, ZRANB3 / RFU, CUL4A / Fold change vs veh, CUL4A / RFU, CCNY / Fold change vs veh, CCNY / RFU, UFL1 / Fold change vs veh, UFL1 / RFU, COG3 / Fold change vs veh, COG3 / RFU, DIAPH2 / Fold change vs veh, DIAPH2 / RFU, SKA2 / Fold change vs veh, SKA2 / RFU, AFF3 / Fold change vs veh, AFF3 / RFU, LMF1 / Fold change vs veh, LMF1 / RFU, IPO11 / Fold change vs veh, IPO11 / RFU, DFFB / Fold change vs veh, DFFB / RFU, FOXP1 / Fold change vs veh, FOXP1 / RFU, CARD8 / Fold change vs veh, CARD8 / RFU, STRN3 / Fold change vs veh, STRN3 / RFU, ADK / Fold change vs veh, ADK / RFU, RASSF2 / Fold change vs veh, RASSF2 / RFU, WIPF1 / Fold change vs veh, WIPF1 / RFU, LARP1B / Fold change vs veh, LARP1B / RFU, RASA1 / Fold change vs veh, RASA1 / RFU, RB1 / Fold change vs veh, RB1 / RFU, PPFIA1 / Fold change vs veh, PPFIA1 / RFU, MAT2A / Fold change vs veh, MAT2A / RFU, CCT5 / Fold change vs veh, CCT5 / RFU, WDR92 / Fold change vs veh, WDR92 / RFU, CUX1 / Fold change vs veh, CUX1 / RFU, TTC7A / Fold change vs veh, TTC7A / RFU, TMEM135 / Fold change vs veh, TMEM135 / RFU, DEPTOR / Fold change vs veh, DEPTOR / RFU, CPM / Fold change vs veh, CPM / RFU, DNAJB6 / Fold change vs veh, DNAJB6 / RFU, CACNA2D3 / Fold change vs veh, CACNA2D3 / RFU, DTX4 / Fold change vs veh, DTX4 / RFU, TFCP2 / Fold change vs veh, TFCP2 / RFU, GMCL1 /// GMCL1P1 / Fold change vs veh, GMCL1 /// GMCL1P1 / RFU, AEBP2 / Fold change vs veh, AEBP2 / RFU, SNHG1 /// SNORD22 /// SNORD25 /// SNORD26 /// SNORD27 /// SNORD28 /// SNORD29 /// SNORD31 / Fold change vs veh, SNHG1 /// SNORD22 /// SNORD25 /// SNORD26 /// SNORD27 /// SNORD28 /// SNORD29 /// SNORD31 / Fold change (Aza/veh), C12orf56 (ProbeSet 11735607_a_at) / Fold change (ACY-1035/veh), C12orf56 (ProbeSet 11735607_a_at) / Fold change (Aza/veh), FGFR1OP (ProbeSet 11751329_s_at) / Fold change (ACY-1035/veh), FGFR1OP (ProbeSet 11751329_s_at) / Fold change (Aza/veh), VPS36 (ProbeSet 11739960_a_at) / Fold change (ACY-1035/veh), VPS36 (ProbeSet 11739960_a_at) / RFU SYPL1 (11715823_x_at) / Fold change /veh SYPL1 (11715823_x_at) / RFU IGFBP7 (11715501_s_at) / Fold change /veh IGFBP7 (11715501_s_at) / RFU REEP3 (11722064_at) / Fold change /veh REEP3 (11722064_at) / RFU IGLL1 (11728026_x_at) / Fold change /veh IGLL1 (11728026_x_at): dose or concentration left out as unconfirmed
Conditions: MV-4-11 cells, 48 hours

## Nc1ccc(-c2cccs2)cc1NC(=O)c1ccc2c(c1)cc(C1CC1)n2CCN1CCOCC1 [ACY-1035]
  RFU PIWIL2 (11732686_x_at): 9.71 RFU
